# Positions of bridges follow the written chain, without caps; N, C: chain ends. Residues, ends and D or L forms follow the SMILES beside them.
# Experiments:
# chymotrypsin = assay: Resistance to a single protease, inhibition zone read-out; assay type: in vitro ADME; details: chymotrypsin for 2 and 4 h; 1 × MIC; inhibition zone against S. Pullorum; three replicate experiments
# Protocol: (§1) The resistance of recombinant MccJ25 to pepsin, trypsin and chymotrypsin was evaluated as described previously ([Chen et al., 2009]; [Meng et al., 2019]) with slight modification. The indicator Salmonella was prepared (approximately 1 × 10^7 CFU/mL), and 1 mL of bacterial inoculum was transferred into 9 mL of each medium with the recombinant MccJ25 and into corresponding control media without the recombinant MccJ25. LB agar inoculated with the indicator bacteria S. Pullorum (approximately 10^5 viable cells per mL) was poured over plates that had been fitted with Oxford cups to make wells. Then, 150 μL of a 1 × MIC final concentration of recombinant MccJ25 that had been previously treated under various conditions for 2 and 4 h were added to the wells. The agar overlays were incubated overnight at 37°C, and the inhibition zones were recorded.
# pepsin = assay: as above; assay type: in vitro ADME; details: pepsin for 2 and 4 h; 1 × MIC; inhibition zone against S. Pullorum; three replicate experiments
# Protocol: as §1
# trypsin = assay: as above; assay type: in vitro ADME; details: trypsin for 2 and 4 h; 1 × MIC; inhibition zone against S. Pullorum; three replicate experiments
# Protocol: as §1
# S. Pullorum [1] = assay: Antimicrobial activity after treatment with simulated gastric fluid (SGF); assay type: in vitro ADME, Salmonella Pullorum; details: simulated gastric fluid, 2, 4, and 6 h; 1 × MIC; inhibition zone; three replicate experiments
# Protocol: (§2) Biological fluids (SGF; SIF) and serum were prepared as described previously ([Liu et al., 2013]; [Xia et al., 2015]). Then, assays of the antibacterial activity of recombinant MccJ25 in SGF, SIF and serum were performed. S. Pullorum was grown in Mueller-Hinton broth (MHB, Difco Laboratories, Detroit, MI, United States). One milliliter of bacterial inoculum was transferred into 9 mL of each medium with the recombinant MccJ25 and into corresponding control medium without the recombinant MccJ25. LB agar inoculated with the indicator bacteria S. Pullorum (approximately 10^5 viable cells per mL) was poured over plates fitted with Oxford cups to make wells. Hundred and fifty μL of a 1 × MIC final concentration of recombinant MccJ25 samples that had previously been treated with SGF, SIF and serum for 2, 4, and 6 h, respectively, were added to the wells. The agar overlays were incubated overnight at 37°C, and the inhibition zones were recorded.
# S. Pullorum [2] = assay: Antimicrobial activity after treatment with simulated intestinal fluid (SIF); assay type: in vitro ADME, Salmonella Pullorum; details: simulated intestinal fluid, 2, 4, and 6 h; 1 × MIC; inhibition zone; three replicate experiments
# Protocol: as §2
# S. Pullorum [3] = assay: Antimicrobial activity after treatment with serum; assay type: in vitro ADME, Salmonella Pullorum; details: murine serum, 2, 4, and 6 h; 1 × MIC; inhibition zone; three replicate experiments
# Protocol: as §2
smiles,measurement,setting,value
"CC[C@H](C)[C@H](NC(=O)CNC(=O)[C@@H](NC(=O)[C@H](Cc1ccccc1)NC(=O)[C@H](Cc1ccc(O)cc1)NC(=O)[C@@H]1CCC(=O)NCC(=O)NCC(=O)N[C@@H](C)C(=O)NCC(=O)N[C@@H](Cc2cnc[nH]2)C(=O)N[C@@H](C(C)C)C(=O)N2CCC[C@H]2C(=O)N1)C(C)C)C(=O)NCC(=O)N[C@H](C(=O)N1CCC[C@H]1C(=O)N[C@H](C(=O)N[C@@H](CO)C(=O)N[C@@H](Cc1ccccc1)C(=O)N[C@@H](Cc1ccc(O)cc1)C(=O)NCC(=O)O)[C@@H](C)CC)[C@@H](C)O [recombinant MccJ25, microcin J25] (GGAGHVPEYFVGIGTPISFYG-OH; lactam N-8)",antimicrobial activity after protease challenge,chymotrypsin,maintained its antimicrobial activity
same,antimicrobial activity after protease challenge,pepsin,maintained its antimicrobial activity
same,antimicrobial activity after protease challenge,trypsin,maintained its antimicrobial activity
same,growth inhibition of S. Pullorum after incubation with SGF,S. Pullorum [1],still inhibited the growth of S. Pullorum in a manner similar to that of recombinant MccJ25 alone
same,growth inhibition of S. Pullorum after incubation with SIF,S. Pullorum [2],still inhibited the growth of S. Pullorum in a manner similar to that of recombinant MccJ25 alone
same,growth inhibition of S. Pullorum after incubation with serum,S. Pullorum [3],still inhibited the growth of S. Pullorum in a manner similar to that of recombinant MccJ25 alone

# — article PMC6718478, “A Comprehensive Antimicrobial Activity Evaluation of the Recombinant Microcin J25 Against the Foodborne Pathogens Salmonella and E. coli O157:H7 by Using a Matrix of Conditions” (Frontiers in Microbiology, 2019)
